# US8273575B2, “Methods for the diagnosis, risk assessment, and monitoring of autism spectrum disorders” (Phenomenome Discoveries Inc., priority 2007, dated 2012)
# Tests used:
# autism biomarkers = assay: Monitoring the biochemical efficacy of carnitine supplementation on autism biomarkers in plasma (FIG. 5); format: in vivo, human
# Text: FIG. 5 is a graph illustrating levels of key DHA and AA containing PlsEtn and VLCFA containing PtdEtn in longitudinal samples collected over the course of one year from autistic subjects taking carnitine supplements [n=12 (4×3)] vs. subjects not taking carnitine supplements [n=33 (11×3)] and vs. controls [n=30 (10×3)]. Values control-normalized and expressed as mean+/−SEM of the ratio to PtdEtn 16:0/18:0, *, p<0.05 vs. control, #, p<0.05 vs. autism, no carnitine; and
# (§1) Sample Collection. Three plasma samples were collected from 15 clinically diagnosed ASD subjects and 12 non-ASD controls over a 12 month period (six month interval between samplings). Four subjects were treated with carnitine (A09, A11, A13, A15). Table 1 outlines the clinical characteristics of the subjects studied. Social cognition scores were determined using methods known in the art.
# LC-MS/MS flow injection analyses. Analyses were performed using a linear ion trap mass spectrometer (4000 Q TRAP, Applied Biosystems) coupled with an Agilent 1100 LC system. Sample was prepared by adding 15 μL of internal standard (5 μg/mL of (24-^13C)-Cholic Acid (Cambridge Isotope Laboratories, Andover, Mass.) in methanol) to 120 μL ethyl acetate fraction of each sample. 100 μl of sample was injected by flow injection analysis (FIA), and monitored under negative APCI mode. The method was based on multiple reaction monitoring (MRM) of one parent/fragment transition for each metabolite and (24-^13C)-Cholic Acid. Each transition was scanned for 70 ms. 10% EtOAc in MeOH at a flow rate of 360 μl/min was used as the mobile phase. The source parameters were set as follows: CUR: 10.0, CAD: 8, NC: −4.0, TEM: 400, GS1: 30, GS2: 50, interface heater on. The compound parameters were set as follows: DP: −120.0, EP: −10, NC: −4.0, CE: −40, CXP: −15. A standard curve was generated for all analytes to verify instrument linearity by serial dilution of a healthy normal serum extract with constant concentration of (24-^13C)-Cholic Acid. All samples were analyzed in a randomized blinded manner and were bracketed by known serum standard dilutions. All standard curves had r^2 values >0.98.
# (§2) Acetyl-carnitine is not approved nor has it been proven to be effective in ASD. To illustrate the utility of a method of monitoring ASD therapy as disclosed herein, the diagnostic ASD biomarkers described above were quantified in subjects taking acetyl-carnitine supplements. FIG. 4 illustrates the carnitine and acetyl carnitine levels in all of the subjects. […] All of the subjects taking acetyl-carnitine had elevated levels of both carnitine and acetyl-carnitine.
# Comparison of the plasma levels of the eight most descriptive metabolites between the carnitine+/−autistic subjects and controls, determined that the effect of carnitine on the autism biomarkers was striking (FIG. 5). […] However, the rate of elongation and desaturation of mono- and di-unsaturated fatty acid precursors appear to be unaffected and a compensatory elevation in AA appears to occur.
# [1] = Plasma carnitine and O-acetylcarnitine levels in longitudinal samples of autistic subjects versus controls (FIG. 4); format: in vivo, human; settings: all ASD subjects taking acetyl-carnitine
# Text: FIG. 4 is a graph illustrating levels of carnitine and O-acetylcarnitine in longitudinal samples collected over the course of one year from individual subjects diagnosed with autism versus controls. Values are control normalized and expressed as mean+/−SEM, n=3 for each child, n=30 for controls, *, p<0.05 vs. control;
# as §1, §2
# [2] = autistic subjects taking carnitine vs not taking and vs controls
compound,measurement,setting,value
C[N+](C)(C)CC(O)CC(=O)[O-] (centres unmarked) [carnitine],Levels of AA-PtdEtn (20:4) in subjects taking carnitine,autism biomarkers,significantly elevated
same,Effect on DHA-PlsEtn,autism biomarkers; [2],Complete normalization
same,Effect on DHA-PtdEtn,autism biomarkers; [2],Complete normalization
same,Effect on saturated VLCFA (28:0),autism biomarkers; [2],Complete normalization
same,Effect on the DHA precursor (24:6),autism biomarkers; [2],Complete normalization
same,Effect on 26:3 PdtEtn,autism biomarkers; carnitine supplementation,no significant effect
same,Effect on 28:1 PdtEtn,autism biomarkers; carnitine supplementation,no significant effect
same,Plasma levels in subjects taking acetyl-carnitine,[1],elevated
